We go through seven compounds from PMC8201255, “A Combined Experimental and Theoretical Study of Nitrofuran Antibiotics: Crystal Structures, DFT Computations, Sublimation and Solution Thermodynamics” (Molecules, 2021).

Read-outs that look alike come from different tables or passages of the source.

For data set [1] the following is noted: 298.15 K, cited from earlier work.
The conditions of data set [2]: for solubility X2·10^5: p = 0.1 MPa, value is X2·10^5. The method, then:
All the solubility experiments were carried out using the analytical isothermal shake-flask method. […] In brief, an excess amount of API was added to triplicate Pyrex glass tubes containing the respective dissolution media. […] The concentrations of the dissolved APIs were measured spectrophotometrically using a Cary 50 UV-vis spectrophotometer (Varian, Australia) with an accuracy of 2–4%.
Conversion of molarity to mole fraction concentration scale was produced using Equation (10):(10) X2=M2S2/S2(M2−M1)+1000ρ where S2 is molarity of API (mol·L^−1), M1 and M2 are the molar masses of solvent and solute, respectively, and ρ (g·cm^−3) is the density of the pure solvents. The mole fraction solubilities for buffer solutions were calculated taking into account the buffer compositions. Densities of buffer solutions (pH 2.0 and 7.4) were measured and published early.
The results are stated as the average of at least three replicated experiments.

The procedure of data set [3]:
Details of the technique are given in the literature. In brief: a flow of the inert gas (N2) through the tube transported the saturated vapor of the sample under investigation at a constant temperature and flow rate. The sample vapor is completely condensed at some point downstream. The sample vapor pressure at this temperature was calculated from the sublimated sample amount and the volume of the inert gas used. The mass of sublimated substance was determined using a spectrophotometer method by means of spectrophotometer Cary-50 (Varian, Australia).
The equipment was calibrated with benzoic acid, as specified in earlier work of our research group.
Absolute vapor pressures for compounds are usually approximated by the Clarke–Glew equation [38].
The value of the sublimation enthalpy is calculated by the Clausius–Clayperon equation:(7) ΔcrgHm0(T)=−R⋅(∂(lnp)/∂(1/T))
The sublimation entropy at a given temperature T is calculated by the following relation:(8) ΔcrgSm0(T)=(ΔcrgHm0(T)−ΔcrgGm0(T))/T with ΔcrgGm0(T)=−RTln(p/p0) , where p0 is the standard pressure (1 × 10^5 Pa).
For experimental reasons, the sublimation data are obtained at high temperatures. However, in comparison with the effusion methods, the temperatures are much lower, which makes extrapolation to room conditions easier.
Van der Waals molecular volumes ( V^vdw ) were estimated by the program GEPOL [50] using atom radiuses proposed by Kitaigorodskii. The free molecular volume in the crystal lattice was calculated on the basis of the single crystal X-ray diffraction data:(14) V^free=V^mol−V^vdw where V^mol is the molecular volume in crystal lattice, which is estimated by the equation:(15) V^mol=V^cell/Z where V^cell is the unit cell volume and Z is the number of molecules in the unit cell.

For data set [4] the following is noted: for TΔSsol0 / ΔGsol0 / ΔHsol0 / ΔSsol0: dissolution; for ςHsolv: relative fraction of solvation enthalpy; for ςTSsolv: relative fraction of solvation entropy; for TΔSsolv0 / ΔGsolv0 / ΔHsolv0 / ΔSsolv0: solvation.
The source holds these as a separate data set.
The conditions of data set [5]: ref Koradia et al. [34]; cited from earlier work.
The mark [6] stands for this setting: buffer pH 2.0, 298.15 K (Table 5).
Setting [7] is: buffer pH 7.4, 298.15 K (Table 5).

Take `O=C1CCC(=O)N1` [Succinimide]: in data set [1] (ref [6]), the “Δgcr Hm0 (298.15)” value is 20 kcal/mol and the “ΔgcrGm0 (298.15)” value was 8.77 kcal/mol.
Consider `O=Cc1ccc(-c2ccc([N+](=O)[O-])cc2)o1` [5-(4-nitrophenyl)-furan-2-carbaldehyde], for which, in data set [1] (ref [8]), the “Δgcr Hm0 (298.15)” value is 32.48 kcal/mol and the “ΔgcrGm0 (298.15)” value was 15.6 kcal/mol.
As to `O=C1CN(/N=C/c2ccc([N+](=O)[O-])o2)C(=O)N1` [NFT, nitrofurantoin], the “X2 (solubility)” value is reported as 3.61·10^5 mol.frac in data set [2] (1-octanol, 298.15 K (Table 5)); 1.49·10^5 mol.frac in data set [2] (setting [6]); 3.28·10^5 mol.frac in data set [2] (setting [7]). In addition, the “solubility X2·10^5” value in data set [2] (1-octanol, 298.15 K) is reported as 3.61 mol. frac; in data set [2] (1-octanol, 303.15 K), 4.97 mol. frac; in data set [2] (1-octanol, 308.15 K) it was 6.53 mol. frac; in data set [2] (1-octanol, 313.15 K), 8.26 mol. frac; in data set [2] (buffer pH 2.0, 298.15 K) it was 1.49 mol. frac; in data set [2] (buffer pH 2.0, 303.15 K), 1.82 mol. frac. The “solubility X2·10^5” value is recorded as 2.26 mol. frac in data set [2] (buffer pH 2.0, 308.15 K); 2.46 mol. frac in data set [2] (buffer pH 2.0, 313.15 K); 3.28 mol. frac in data set [2] (buffer pH 7.4, 298.15 K); 4.33 mol. frac in data set [2] (buffer pH 7.4, 303.15 K); 5.51 mol. frac in data set [2] (buffer pH 7.4, 308.15 K); 6.72 mol. frac in data set [2] (buffer pH 7.4, 313.15 K). Further, the “298.15⋅ΔcrgSm0(298.15K)” value in data set [3] (298.15 K) stood at 14.7 kcal/mol. Moreover, the “ΔcrgGm0(298.15), sublimation Gibbs energy” value in data set [3] (298.15 K) was found to be 20.4 kcal/mol. In addition, the “ΔcrgHm0(298.15K), sublimation enthalpy” value in data set [3] (298.15 K) was determined as 35.01 ± 0.17 kcal/mol. Also, the “ΔcrgSm0(298.15K), sublimation entropy” value in data set [3] (298.15 K) is 205.5 ± 2.8 J·mol^−1·K^−1. For the same compound, in data set [3] (at experimental temperature T), the “ΔcrgHm0(T), sublimation enthalpy” value is 33.44 ± 0.17 kcal/mol. Besides, the ςH in data set [3] (enthalpy term of sublimation, 298.15 K) turned out to be 70.5%. The ςTS in data set [3] (entropy term of sublimation, 298.15 K) was determined as 29.5%. For the same compound, the “p(298.15K), saturated vapor pressure” value in data set [3] (extrapolated to 298.15 K) was 1.19·10^−10 Pa. The “β = V^free/V^vdw” value in data set [3] (free volume in the crystal lattice over van der Waals volume) is given as 36.3%. The TΔSsol0 in data set [4] (1-octanol, 298.15 K) was 4.18 kcal/mol; in data set [4] (buffer pH 2.0, 298.15 K), -0.22 kcal/mol; in data set [4] (buffer pH 7.4, 298.15 K), 2.84 kcal/mol. Moreover, the ΔGsol0 was found to be 6.07 kcal/mol in data set [4] (1-octanol, 298.15 K); 6.57 kcal/mol in data set [4] (buffer pH 2.0, 298.15 K); 6.12 kcal/mol in data set [4] (buffer pH 7.4, 298.15 K). Further, the ΔHsol0 in data set [4] (1-octanol, 298.15 K) turned out to be 10.2 ± 0.406 kcal/mol; in data set [4] (buffer pH 2.0, 298.15 K), 6.36 ± 0.669 kcal/mol; in data set [4] (buffer pH 7.4, 298.15 K) it was 8.96 ± 0.454 kcal/mol. Moreover, the ΔSsol0 in data set [4] (1-octanol, 298.15 K) is on record as 58.5 ± 2.5 J·K^−1·mol^−1; in data set [4] (buffer pH 2.0, 298.15 K) it was −3.1 ± 3.7 J·K^−1·mol^−1; in data set [4] (buffer pH 7.4, 298.15 K), 39.9 ± 2.7 J·K^−1·mol^−1. For the same compound, the ςHsolv was 70.3% in data set [4] (1-octanol, 298.15 K); 65.8% in data set [4] (buffer pH 2.0, 298.15 K); 68.8% in data set [4] (buffer pH 7.4, 298.15 K). Besides, the ςTSsolv in data set [4] (1-octanol, 298.15 K) worked out at 29.7%; in data set [4] (buffer pH 2.0, 298.15 K), 34.2%; in data set [4] (buffer pH 7.4, 298.15 K) it was 31.2%. Moreover, the TΔSsolv0 was -10.5 kcal/mol in data set [4] (1-octanol, 298.15 K); -14.9 kcal/mol in data set [4] (buffer pH 2.0, 298.15 K); -11.8 kcal/mol in data set [4] (buffer pH 7.4, 298.15 K). Also, the ΔGsolv0 in data set [4] (1-octanol, 298.15 K) was -14.3 kcal/mol; in data set [4] (buffer pH 2.0, 298.15 K), -13.8 kcal/mol; in data set [4] (buffer pH 7.4, 298.15 K) it was -14.2 kcal/mol. The ΔHsolv0 in data set [4] (1-octanol, 298.15 K) was -24.78 kcal/mol; in data set [4] (buffer pH 2.0, 298.15 K), -28.66 kcal/mol; in data set [4] (buffer pH 7.4, 298.15 K), -26.05 kcal/mol. The ΔSsolv0 in data set [4] (1-octanol, 298.15 K) was −147.0 J·K^−1·mol^−1; in data set [4] (buffer pH 2.0, 298.15 K), −208.6 J·K^−1·mol^−1; in data set [4] (buffer pH 7.4, 298.15 K), −165.6 J·K^−1·mol^−1.
For the compound `O=C1NCCN1` [2-imadazolidinone], in data set [1] (ref [5]), the “Δgcr Hm0 (298.15)” value was 20 kcal/mol and the “ΔgcrGm0 (298.15)” value was 10.2 kcal/mol.
Take `O=C1CNC(=S)N1` [2-Thiohydantoin]: in data set [1] (ref [7]), the “Δgcr Hm0 (298.15)” value was 28.47 kcal/mol and the “ΔgcrGm0 (298.15)” value is 14.4 kcal/mol.
Take `O=C1CNC(=O)N1` [2,4-Imidazolidinedione]: in data set [1] (ref [7]), the “Δgcr Hm0 (298.15)” value is 27.8 kcal/mol and the “ΔgcrGm0 (298.15)” value is 13.8 kcal/mol.
Consider `O.O=C1CN(/N=C/c2ccc([N+](=O)[O-])o2)C(=O)N1` [[NFT + H2O], nitrofurantoin monohydrate], for which the “difference between equilibrium solubility of the monohydrate and solubility of anhydrous NFT” value in data set [2] (313.15 K) is recorded as at most 15%. Besides, the “X2 (solubility)” value is on record as 0.73·10^5 mol.frac in data set [2] (setting [6]) and 1.98·10^5 mol.frac in data set [2] (setting [7]). Besides, the “solubility X2·10^5” value in data set [2] (buffer pH 2.0, 298.15 K) is listed as 0.73 mol. frac; in data set [2] (buffer pH 2.0, 303.15 K) it was 1.07 mol. frac; in data set [2] (buffer pH 2.0, 308.15 K) it was 1.43 mol. frac; in data set [2] (buffer pH 2.0, 313.15 K), 1.96 mol. frac; in data set [2] (buffer pH 7.4, 303.15 K) it was 2.34 mol. frac; in data set [2] (buffer pH 7.4, 308.15 K), 3.83 mol. frac. For the same compound, in data set [2] (buffer pH 7.4, 313.15 K), the “solubility X2·10^5” value is reported as 5.90 mol. frac. Further, the TΔSsol0 in data set [4] (buffer pH 2.0, 298.15 K) was 5.04 kcal/mol; in data set [4] (buffer pH 7.4, 298.15 K) it was 10.6 kcal/mol. The ΔGsol0 in data set [4] (buffer pH 2.0, 298.15 K) was 7 kcal/mol; in data set [4] (buffer pH 7.4, 298.15 K), 6.41 kcal/mol. Moreover, the ΔHsol0 was 12.1 ± 0.406 kcal/mol in data set [4] (buffer pH 2.0, 298.15 K) and 17.2 ± 0.287 kcal/mol in data set [4] (buffer pH 7.4, 298.15 K). Further, the ΔSsol0 in data set [4] (buffer pH 2.0, 298.15 K) is recorded as 70.9 ± 2.6 J·K^−1·mol^−1; in data set [4] (buffer pH 7.4, 298.15 K), 148.5 ± 2.0 J·K^−1·mol^−1. Besides, the “ΔHw, vaporization enthalpy of water from the crystal” value (from DSC and TG, Equation (4)) came to 14.4 kcal/mol. The “sublimation enthalpy computed using Equation (5)” value (thermodynamic cycle: sublimation enthalpy of NFT + ΔHw) was determined as 47.85 kcal/mol. Besides, in data set [5], the “activation energy of dehydration process” value was 46.8 to 47.1 kcal/mol.
